Data on 43 compounds can be found in PMC7529893, “Structural basis for substrate recognition and chemical inhibition of oncogenic MAGE ubiquitin ligases” (Nature Communications, 2020).

Like-named read-outs stand apart in the source and are kept apart here. Where only a bound is given, the exact number is not on record here.

The target of this assay is T1, MAGE-A11:PCF11 interaction (GST-MAGE-A11 MHD and FAM-PCF11_4) (Homo sapiens, UniProt P43364).
T1 construct: GST-MAGE-A11 MHD (human MAGE-A11 MHD amino acid 218-429); made in house; host or cells: E. coli BL21(DE3)
T1 sequence (P43364 218-429): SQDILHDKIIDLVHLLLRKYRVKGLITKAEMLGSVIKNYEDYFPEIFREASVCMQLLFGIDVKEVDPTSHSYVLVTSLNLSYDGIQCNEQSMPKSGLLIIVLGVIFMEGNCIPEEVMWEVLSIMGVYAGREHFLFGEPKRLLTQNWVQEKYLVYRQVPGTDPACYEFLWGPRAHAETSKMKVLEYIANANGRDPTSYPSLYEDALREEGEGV
Put plainly: TR-FRET dose response test of compounds for disruption of MAGE-A11:PCF11 binding. How it is done: The TR-FRET assay buffer with a formula of 50 mM Tris pH 7.5, 20 mM MgCl2, 0.1 mg/ml BSA and 1 mM DTT was freshly prepared before each experiment. All TR-FRET assays were performed in black 384-well plates with 20 µl/well assay volume in the TR-FRET assay buffer at room temperature (~25 °C). All peptides or compounds were solubilized in DMSO. To test the competitive activity of peptides or compounds against the interaction between GST-MAGE-A11 MHD and FAM-PCF11_4 peptide, 10 µl/well peptide or compound at specified concentration was dispensed into a black 384-well low volume plate, followed by 5 µl/well FAM-PCF11_4 (800 nM), 5 µl/well Tb-anti-GST (20 nM), and GST-MAGE-A11 MHD (20 nM). The assay components in each well was then mixed by shaking the plate on an IKA MTS 2/4 digital microtiter plate shaker (IKA Works; Wilmington, NC, USA) for 1 min. The plate was further centrifuged in an Eppendorf 5810 centrifuge with an A-4-62 swing-bucket rotor (Eppendorf AG, Hamburg, Germany) at 201 g for 30 s. The plate was then incubated for 90 min with a lid to avoid light exposure to the assay components. After incubation, the fluorescent emission signals at 520 nm and 490 nm channels of individual wells were measured with a PHERAstar FS plate reader (BMG Labtech; Durham, NC, USA) by using a 340 nm excitation filter, 100 µs delay time, and 200 µs integration time. The TR-FRET fluorescence emission ratio (TR-FRET signal) for each well was presented as 10,000 × 520 nm/490 nm, which was used directly for curve fitting, or further converted to %Inhibition based on the respective positive and negative controls. The graphic software GraphPad Prism 4.81 (GraphPad Software; La Jolla, CA, USA) was used to generate curves and derive IC50 values of tested peptides or compounds, if applicable.
TR-FRET screen for identifying MAGE-A11 small molecule inhibitors was performed as follows. The primary one-concentration screening and subsequent 10 or 20-concentration dose-response tests were accomplished with an automated High Throughput Screening system (HighRes Biosolutions, Beverly, MA)[30]. In the primary screening, 15 µl/well FAM-PCF11_4 (267 nM) was first dispensed with a Multidrop Combi Reagent Dispenser (Thermo Fisher Scientific, Waltham, MA) to black 384-well low-volume assay plates. The plates were spun down with a Velocity11 VSpin microplate centrifuge (Agilent Technologies, Santa Clara, CA). In total, 30 nl/well of 10 mM compound/DMSO solutions, or DMSO alone, were transferred from compound plates (the St. Jude FDA drug and bioactive library, Drug-like library and Lead-like library) or a control plate to the assay plates with a Pin Tool (V&P Scientific, San Diego, CA). The compounds were arrayed in columns 3–12 and columns 15–24 of compound plates. The controls were arrayed in columns 1, 2, 13, and 14 of a compound plate. In all, 5 µl/well Tb-anti-GST (20 nM) and GST-MAGE-A11 (20 nM) or 5 µl/well Tb-anti-GST (20 nM) alone was then dispensed to selected wells with a Multidrop Combi Reagent Dispenser. The final assay volume was 20 µl/well. The final DMSO concentration was 0.25% (v/v) (0.1% (v/v) from the FAM-PCF11_4 DMSO stock solution and 0.15% (v/v) from the compound-DMSO solution or the DMSO for the control wells). The final tested compound concentration was 15 µM. The final FAM-PCF11_4 concentration was 200 nM and the final Tb-anti-GST concentration was 5 nM. The final GST-MAGE-A11 concentration was 5 nM except for those selected positive control wells in which GST-MAGE-A11 was not presented. The plates were then shaken with a big bear shaker (Big Bear Automation, Santa Clara, California) and spun down with the Velocity11 VSpin microplate centrifuge for 20 s. The plates were then incubated at room temperature in a Liconic incubator (Liconic US, Woburn, MA) for 90 min. The TR-FRET signals for individual wells were measured with a PHERAstar FS plate reader. The %Inhibition of each tested inhibitor was calculated by using Eq. 1.
For orientation: In TR-FRET formats the signal depends on donor and acceptor labels being close together.

Setting [1] is: Supplementary Data 3, 59 quinoline compounds, read-out: TR-FRET IC50.
[2] abbreviates: Dose response TR-FRET screening of nine scaffold groups against MAGE-A11:PCF11, read-out: consensus IC50.

In the case of `CCCN(CCCNc1ccnc2cc(Cl)ccc12)Cc1cc(C(F)(F)F)ccc1OC` [SJ000523012-1, CCCN(CCCNc1ccnc2cc(Cl)ccc12)Cc3cc(ccc3OC)C(F)(F)F], under setting [1], the IC50 is over 70 µM.

As to `CC(C)(C)c1ccc(Oc2ccc3c(NCCCNCc4cccc5c4OCO5)ccnc3c2)cc1` [SJ000311236-1], the half-maximal inhibitory concentration (IC50) under setting [2] worked out at 8.67 µM.

In the case of `COc1ccc(F)cc1CNCCCNc1ccnc2cc(-c3ccccc3)ccc12` [SJ000311285-1], the IC50 under setting [2] is 28.2 µM.

As for `COc1ccc(F)cc1CNCCCNc1ccnc2cc(-c3ccc(F)cc3)ccc12` [SJ000311241-1], the IC50 under setting [2] is 38.9 µM.

Take `CCC(CC)c1ccc2c(NCCCNCc3cc(F)ccc3OC)ccnc2c1` [SJ000311269-1]: under setting [2], the IC50 came to 43 µM.

`c1ccc(Oc2ccc3c(NCCCNCc4cccc5c4OCO5)ccnc3c2)cc1` [SJ000311208-1]: under setting [2], the IC50 turned out to be 30.1 µM.

Take `CCCN(CCCNc1ccnc2cc(Cl)ccc12)Cc1ccc(-c2ccccc2)cc1` [SJ000523039-1, CCCN(CCCNc1ccnc2cc(Cl)ccc12)Cc3ccc(cc3)c4ccccc4]: the IC50 under setting [1] is over 70 µM.

`O=S(=O)(c1ccccc1)c1nc(-c2ccc(Br)cc2)oc1N1CCOCC1` [SJ000244320-1]: the IC50 under setting [2] came to 8.63 µM.

Turning to `COc1ccc(C(F)(F)F)cc1CN(CCCCNc1ccnc2cc(Cl)ccc12)Cc1ccccc1` [SJ000520444-1, COc1ccc(cc1CN(CCCCNc2ccnc3cc(Cl)ccc23)Cc4ccccc4)C(F)(F)F], under setting [1], the IC50 was over 70 µM.

Consider `FC(F)(F)c1ccc2c(NCCCNCc3csc4ccccc34)ccnc2c1` [SJ000521061-1, FC(F)(F)c1ccc2c(NCCCNCc3csc4ccccc34)ccnc2c1], for which the IC50 under setting [1] was over 70 µM.

As for `CN(C)c1ccc(NC2=C(Cl)C(=O)c3ccccc3C2=O)cc1` [SJ000109503-1], the IC50 under setting [2] turned out to be 3.3 µM.

In the case of `CCCCCn1c(-c2ccc(F)c(Br)c2)nc2c1c(=O)[nH]c(=O)n2CCCC` [SJ000378900-1], the IC50 under setting [2] turned out to be 2.64 µM.

Take `COc1ccc(F)cc1CNCCCNc1ccnc2cc(Cc3ccc(F)cc3Cl)ccc12` [SJ000311325-1]: under setting [2], the IC50 was 17.6 µM.

Take `COc1ccc(Oc2ccc3c(NCCCNCc4cc(F)ccc4OC)ccnc3c2)cc1` [SJ000311221-1]: the IC50 under setting [2] amounted to 46.4 µM.

In the case of `Clc1ccc2c(NCCCN(Cc3ccccc3)Cc3c[nH]c4ccccc34)ccnc2c1` [SJ000520433-1, Clc1ccc2c(NCCCN(Cc3ccccc3)Cc4c[nH]c5ccccc45)ccnc2c1], the IC50 under setting [1] is over 70 µM.

For `FC(F)(F)Oc1cccc(CN(CCCCNc2ccnc3cc(Cl)ccc23)Cc2ccccc2)c1` [SJ000520457-1, FC(F)(F)Oc1cccc(CN(CCCCNc2ccnc3cc(Cl)ccc23)Cc4ccccc4)c1], the IC50 under setting [1] is over 70 µM.

For `CCCCCCN(CCC)CCCNc1ccnc2cc(C(F)(F)F)ccc12` [SJ000523083-1, CCCCCCN(CCC)CCCNc1ccnc2cc(ccc12)C(F)(F)F], the IC50 under setting [1] is over 70 µM.

Consider `Cc1cc(C)c(CN(CCCNc2ccnc3cc(Cl)ccc23)Cc2ccccc2)c(C)c1` [SJ000361169-2, Cc1cc(C)c(CN(CCCNc2ccnc3cc(Cl)ccc23)Cc4ccccc4)c(C)c1], for which the IC50 under setting [1] is over 70 µM.

Take `CCC(C)CN(CCCCNc1ccnc2cc(Cl)ccc12)Cc1ccccc1` (stereo not shown) [SJ000361208-2, CCC(C)CN(CCCCNc1ccnc2cc(Cl)ccc12)Cc3ccccc3]: under setting [1], the IC50 is over 70 µM.

For `COc1cc(NCc2ccc3nc(N)nc(N)c3c2C)cc(OC)c1OC` [SJ000574313-7], the IC50 under setting [2] is 9.46 µM.

On to `COc1cccc(CNCCCNc2ccnc3cc(-c4ccccc4)ccc23)c1O` [SJ000311283-1], for which the half-inhibitory concentration (IC50) under setting [2] amounted to 24.1 µM.

With `FC(F)(F)c1ccc2c(NCCCNCc3cc(Br)cs3)ccnc2c1` [SJ000521056-1, FC(F)(F)c1ccc2c(NCCCNCc3cc(Br)cs3)ccnc2c1], the IC50 under setting [1] was over 70 µM.

With `COC(=O)CCCCCNCCCNc1ccnc2cc(Cl)ccc12` [SJ000521021-1], the concentration for half-maximal inhibition (IC50) under setting [1] came to 31.4 µM.

Consider `c1coc(CNCCCNc2ccnc3cc(CC4CCCCC4)ccc23)c1` [SJ000311250-1, C(CNCc1occc1)CNc2ccnc3cc(CC4CCCCC4)ccc23], for which, under setting [1], the IC50 turned out to be 54.9 µM.

Take `COc1ccc(C(F)(F)F)cc1CNCCCNc1ccnc2cc(C(F)(F)F)ccc12` [SJ000521064-1]: the IC50 under setting [2] was determined as 69.1 µM.

On to `CS(=O)(=O)c1ccc(C2=C(c3ccccc3)C(=O)OC2)cc1` [SJ000285362-5], for which the IC50 under setting [2] stood at 67.6 µM.

In the case of `Fc1ccc(Oc2ccc3c(NCCCNCc4cccc5c4OCO5)ccnc3c2)cc1` [SJ000311224-1], the IC50 under setting [2] worked out at 59.6 µM.

In the case of `CCOc1ccc(N(C(C)=O)C2=C(N)C(=O)c3ccccc3C2=O)cc1` [SJ000558312-2], under setting [2], the IC50 turned out to be 65.7 µM.

Consider `COc1cccc(CNCCCNc2ccnc3cc(-c4ccc(C(F)(F)F)cc4)ccc23)c1O` [SJ000311279-1], for which the half-inhibitory concentration (IC50) under setting [2] was 9.52 µM.

With `CC1CN(c2oc(-c3ccccc3F)nc2S(=O)(=O)c2ccc(F)cc2)CC(C)O1` (stereo not shown) [SJ000329067-1], the IC50 under setting [2] stood at 27.3 µM.

On to `CCCCOc1ccc(N(C(C)=O)C2=C(Cl)C(=O)c3ccccc3C2=O)cc1` [SJ000032717-1], for which the IC50 under setting [2] amounted to 8.71 µM.

In the case of `Cc1ccccc1NC1=C(N)C(=O)c2ccccc2C1=O` [SJ000562551-1], under setting [2], the IC50 is over 70 µM.

For the compound `FC(F)(F)c1cccc(Cc2ccc3c(NCCCNCc4cccc5c4OCO5)ccnc3c2)c1` [SJ000311300-1], the IC50 under setting [2] turned out to be 12.8 µM.

Take `Cc1ccc(S(=O)(=O)c2nc(-c3cccc(C)c3)oc2N2CCOCC2)cc1` [SJ000027480-1]: under setting [2], the IC50 is 11.2 µM.

Turning to `Cn1c(=O)c2[nH]c(-c3ccc(S(=O)(=O)O)cc3)nc2n(C)c1=O` [SJ000287642-4], the IC50 under setting [2] was 21.8 µM.

For `Clc1cccc(Cl)c1Cc1ccc2c(NCCCNCc3ccco3)ccnc2c1` [SJ000311314-1, Clc1cccc(Cl)c1Cc2ccc3c(NCCCNCc4occc4)ccnc3c2], under setting [1], the IC50 was 38.4 µM.

With `CC(C)(C)c1ccc(Oc2ccc3c(NCCCNCc4ccco4)ccnc3c2)cc1` [SJ000311234-1, CC(C)(C)c1ccc(Oc2ccc3c(NCCCNCc4occc4)ccnc3c2)cc1], the IC50 under setting [1] worked out at 32.1 µM.

`Cc1ccc(S(=O)(=O)c2nc(-c3ccc(F)cc3)oc2N2CCOCC2)cc1` [SJ000230854-1]: the IC50 under setting [2] came out at 11.7 µM.

For `c1cc(CNCCCNc2ccnc3cc(CC4CCCCC4)ccc23)c2c(c1)OCO2` [SJ000311252-1], the half-maximal inhibitory concentration (IC50) under setting [2] worked out at 16 µM.

With `COc1cccc(Oc2ccc3c(NCCCNCc4cccc5c4OCO5)ccnc3c2)c1` [SJ000311216-1], under setting [2], the half-maximal inhibitory concentration (IC50) turned out to be 36.9 µM.

For the compound `COc1cc2nc(N3CCN(C(=O)C4COc5ccccc5O4)CC3)nc(N)c2cc1OC` (stereo not shown) [SJ000113084-10], the IC50 under setting [2] came to 57.1 µM.

`COc1cccc(CNCCCNc2ccnc3cc(C4CCCCC4)ccc23)c1O` [SJ000311263-1]: the IC50 under setting [2] came to 32.4 µM.

In the case of `COc1cccc(CNCCCNc2ccnc3cc(Oc4ccc(F)cc4)ccc23)c1O` [SJ000311223-1], under setting [2], the IC50 was 61.9 µM.

What is called IC50 is the point on the concentration scale where inhibition reaches its midpoint.
